# Experiments:
# [1] = tested on: p21 promoter in MCF7shctrl or shTau cells; experiment: ChIP-qPCR of H3 acetylation and Tau occupancy on the p21 promoter; assay type: cell-based, human; conditions: for acetylated H3 enrichment compared to IgG: p21 promoter (transcription start site region)
# Source text: (A) Chromatin immunoprecipitations-qPCR analysis of H3 acetylation and Tau occupancy on the GAPDH promoter in MCF7shctrl cells in the indicated conditions. MCF7shctrl cells were subjected to cross-linking by 1% formaldehyde. Chromatin fragments were then immunoprecipitated using antibodies (Ab) against acetylated H3 (ac-H3) or Tau and analyzed by quantitative PCR for the presence of the GAPDH promoter. (B) Functional organization of the p21 promoter. (C) ChIP-qPCR analysis of H3 acetylation in MCF7shctrl or shTau cells or (D) Tau occupancy in MCF7shctrl cells on the p21 promoter. (E) ChIP-qPCR analysis of H3 acetylation or Tau occupancy on the stably transfected GAL4UAS responsive luciferase reporter transfected, or not, with Tau4R, then 24 h later treated with 100 nM TSA for 24 h. Cells were then subjected to cross-linking by 1% formaldehyde. Chromatin fragments were then immunoprecipitated using antibodies (Ab) against acetylated H3 or Tau and analyzed by quantitative PCR for the presence of the GAL4 UAS promoter. Quantification of enrichment is represented as fold-enrichment relative to IgG. Data are mean±SD **P<0.01***P<0.001
# The ChIP protocol used was previously described (Lefebvre et al., 2006). Primers sequences for the pGL4.31[luc2P/GAL4 UAS/Hygro] promoter were: forward, 5′-[…]-3′ (SEQ ID N^o1), and reverse, 5′-[…]-3′ (SEQ ID N^o2); for p21 promoter: distal forward 5′-[…]-3′ (SEQ ID N^o3) and reverse 5′-[…]-3′ (SEQ ID N^o4); proximal forward 5′-[…]-3′ (SEQ ID N^o5) and reverse 5′-[…]-3′ (SEQ ID N^o6); p21 (transcription start site) TSS forward: 5′-[…]-3′ (SEQ ID N^o7) and reverse 5′-GCTCTCTCACCTCCTCTG3′ (SEQ ID N^o8); for GAPDH TSS: forward 5′-[…]-3′ (SEQ ID N^o9) and reverse 5′-[…]-3′ (SEQ ID N^o10). Antibodies used in the studies included the following: anti-acetylated H3 (Active motif, 39139) and anti-Tau1 (Millipore, MAB3420). All ChIP analyses were performed in at least two independent experiments.
# To test this hypothesis, we next performed chromatin immunoprecipitations assays. Antibodies specific for acetylated H3 (ac-H3) and Tau were used to immunoprecipitate formaldehyde-cross-linked sonicated chromatin from short hairpin Tau knockdowns and control cells treated, or not, with 100 nM TSA. Quantitative PCR analysis of input or immunoprecipitated DNA using acetylated H3 and Tau antibodies was carried out to detect different promoter regions. As a control of non-TSA-inducible gene, we first used primers encompassing the transcription start site of the GAPDH promoter. No change in the level of acetylated H3, nor Tau binding, were detected after TSA treatment (FIG. 3A). […] In addition, Tau was detected at the level of these regions in MCF7shctrl cells (≈4-fold enrichment) in absence or presence of TSA treatment (FIG. 3D).
# [2] = tested on: HP1α clusters in MCF7shctrl and shTau cells; experiment: HP1α clusters per nucleus, confocal immunofluorescence; assay type: cell-based, human; conditions: 100 nM TSA, 24 h
# Procedure: (A) Representative confocal sections of MCF7shctrl and shTau cells untreated or treated with 100 nM TSA for 24 h. […] (B) Quantification of HP1α clusters per nuclei visualized as described previously and realized on three independent experiments. (C) GADD45a and (D) p21 (CDKN1a) expression in MCF7shctrl and shTau cells untreated or treated with 100 nM TSA for 24 h were analyzed by real-time PCR and normalized to RPLO. Results are expressed, relative to the basal activity set to 1, as the mean±SD of three independent assays. (E) Tau tethering prevents adjacent reporter gene activity induced by TSA. GAL4UAS responsive luciferase reporter Hela stable cell line was transfected with GAL4DBD (GAL4) or GAL4DBD-Tau4R and then, 24 h later, treated with TSA (600 nM) for 24 h. The luciferase activity was determined as described in the Materials and Methods. (F) Ectopic Tau4R expression prevents adjacent reporter gene activity induced by TSA. […] The luciferase activity was determined as described in the Materials and Methods. […]
# MCF7shctrl, MCF7shTau or transfected Hela cells with Tau4R and GFP-HP1α were fixed in 4% paraformaldehyde for 30 min at room temperature. […] Slides were then analyzed with a Zeiss LSM710 confocal laser scanning microscope (60× magnification). Images were collected in the Z direction at 0.80 μm intervals and quantifications were realized using the Image J plug-in.
smiles,measurement,setting,value
"CC(/C=C/C(=O)NO)=C\[C@@H](C)C(=O)c1ccc(N(C)C)cc1 [TSA, 2,4-Heptadienamide, 7-[4-(dimethylamino)phenyl]-N-hydroxy-4,6-dimethyl-7-oxo-, (2E,4E,6R)-]",acetylated H3 enrichment compared to non-treated cells,"[1]; 100 nM TSA, MCF7shTau cells, p21 proximal and distal regions",≈ 10 fold
same,acetylated H3 enrichment compared to IgG,"[1]; 100 nM TSA, shctrl cells",70 fold
same,Tau enrichment (occupancy),"[1]; MCF7shctrl cells, p21 proximal and distal regions, in absence or presence of TSA treatment",≈ 4 fold
same,acetylated H3 enrichment compared to IgG,"[1]; shTau cells, irrespective of TSA treatment",≈ 160 fold
same,HP1α clusters per nucleus,[2]; Tau knocked down MCF7 cells,3 clusters
same,HP1α clusters per nucleus,[2]; sh-control MCF7 cells,five

# Reference: patent publication US20250134952A1, “METHODS FOR IMPROVING THE EFFICACY OF HDAC INHIBITOR THERAPY AND PREDICTING THE RESPONSE TO TREATMENT WITH HDAC INHIBITOR” (INSTITUT NATIONAL DE LA SANTÉ ET DE LA RECHERCHE MÉDICALE, priority 2021, published 2025)
